Data taken from the NIST ThermoML archive (doi:10.1021/je500332k).
Numbers after ± are expanded uncertainties.

What was measured:
[1] = Boiling temperature at pressure P; conditions: 101.33 kPa; Liquid; Distillation
[2] = refractive index (Na D-line) (dimensionless); conditions: 298.2 K; 101.33 kPa; Liquid; Standard Abbe refractometry
[3] = 298.2 K; 101.33 kPa; Liquid; Vibrating tube method

| Boiling temperature at pressure P [1] [°C] | refractive index [2] | mass density [3] [kg/m3] | Structure (SMILES) |
| --- | --- | --- | --- |
| 90.08 ± 0.29 | 1.3685 ± 0.0004 | 1061.9 ± 0.38 | COC(=O)OC [dimethyl carbonate] |
| 118.1 ± 0.3 | 1.3713 ± 0.0003 | 1049.42 ± 0.26 | CC(=O)O [acetic acid] |
| 100.1 ± 0.3 | 1.3324 ± 0.0003 |  | O [water] |
